Experimental findings from patent US9549932B2, “2-(morpholin-4-yl)-1,7-naphthyridines” (BAYER PHARMA AKTIENGESELLSCHAFT, priority 2014, dated 2017) are described below.

The target in this experiment is full-length human ATR protein (Homo sapiens (Human), UniProt Q13535). Put plainly: Binding assay ATR (TR-FRET tracer displacement). The following applies: TR-FRET. Summed up: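 Full-length human GST-ATR co-purified with ATRIP, pre-complexed 30 min at 22 °C with anti-GST-Tb antibody, then pre-bound with compound 10 min. Tracer A or B added (2 µl of 100 nM solution), 30 min at 22 °C.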

Setting [1] is: tracer A, read-out: ATR binding (tracer A) IC50.

Each structure is given as a SMILES string. Like-named read-outs stand apart in the source and are kept apart here.

full-length human ATR protein, sequence (Q13535 other isoform, or with tags, fused parts or gaps): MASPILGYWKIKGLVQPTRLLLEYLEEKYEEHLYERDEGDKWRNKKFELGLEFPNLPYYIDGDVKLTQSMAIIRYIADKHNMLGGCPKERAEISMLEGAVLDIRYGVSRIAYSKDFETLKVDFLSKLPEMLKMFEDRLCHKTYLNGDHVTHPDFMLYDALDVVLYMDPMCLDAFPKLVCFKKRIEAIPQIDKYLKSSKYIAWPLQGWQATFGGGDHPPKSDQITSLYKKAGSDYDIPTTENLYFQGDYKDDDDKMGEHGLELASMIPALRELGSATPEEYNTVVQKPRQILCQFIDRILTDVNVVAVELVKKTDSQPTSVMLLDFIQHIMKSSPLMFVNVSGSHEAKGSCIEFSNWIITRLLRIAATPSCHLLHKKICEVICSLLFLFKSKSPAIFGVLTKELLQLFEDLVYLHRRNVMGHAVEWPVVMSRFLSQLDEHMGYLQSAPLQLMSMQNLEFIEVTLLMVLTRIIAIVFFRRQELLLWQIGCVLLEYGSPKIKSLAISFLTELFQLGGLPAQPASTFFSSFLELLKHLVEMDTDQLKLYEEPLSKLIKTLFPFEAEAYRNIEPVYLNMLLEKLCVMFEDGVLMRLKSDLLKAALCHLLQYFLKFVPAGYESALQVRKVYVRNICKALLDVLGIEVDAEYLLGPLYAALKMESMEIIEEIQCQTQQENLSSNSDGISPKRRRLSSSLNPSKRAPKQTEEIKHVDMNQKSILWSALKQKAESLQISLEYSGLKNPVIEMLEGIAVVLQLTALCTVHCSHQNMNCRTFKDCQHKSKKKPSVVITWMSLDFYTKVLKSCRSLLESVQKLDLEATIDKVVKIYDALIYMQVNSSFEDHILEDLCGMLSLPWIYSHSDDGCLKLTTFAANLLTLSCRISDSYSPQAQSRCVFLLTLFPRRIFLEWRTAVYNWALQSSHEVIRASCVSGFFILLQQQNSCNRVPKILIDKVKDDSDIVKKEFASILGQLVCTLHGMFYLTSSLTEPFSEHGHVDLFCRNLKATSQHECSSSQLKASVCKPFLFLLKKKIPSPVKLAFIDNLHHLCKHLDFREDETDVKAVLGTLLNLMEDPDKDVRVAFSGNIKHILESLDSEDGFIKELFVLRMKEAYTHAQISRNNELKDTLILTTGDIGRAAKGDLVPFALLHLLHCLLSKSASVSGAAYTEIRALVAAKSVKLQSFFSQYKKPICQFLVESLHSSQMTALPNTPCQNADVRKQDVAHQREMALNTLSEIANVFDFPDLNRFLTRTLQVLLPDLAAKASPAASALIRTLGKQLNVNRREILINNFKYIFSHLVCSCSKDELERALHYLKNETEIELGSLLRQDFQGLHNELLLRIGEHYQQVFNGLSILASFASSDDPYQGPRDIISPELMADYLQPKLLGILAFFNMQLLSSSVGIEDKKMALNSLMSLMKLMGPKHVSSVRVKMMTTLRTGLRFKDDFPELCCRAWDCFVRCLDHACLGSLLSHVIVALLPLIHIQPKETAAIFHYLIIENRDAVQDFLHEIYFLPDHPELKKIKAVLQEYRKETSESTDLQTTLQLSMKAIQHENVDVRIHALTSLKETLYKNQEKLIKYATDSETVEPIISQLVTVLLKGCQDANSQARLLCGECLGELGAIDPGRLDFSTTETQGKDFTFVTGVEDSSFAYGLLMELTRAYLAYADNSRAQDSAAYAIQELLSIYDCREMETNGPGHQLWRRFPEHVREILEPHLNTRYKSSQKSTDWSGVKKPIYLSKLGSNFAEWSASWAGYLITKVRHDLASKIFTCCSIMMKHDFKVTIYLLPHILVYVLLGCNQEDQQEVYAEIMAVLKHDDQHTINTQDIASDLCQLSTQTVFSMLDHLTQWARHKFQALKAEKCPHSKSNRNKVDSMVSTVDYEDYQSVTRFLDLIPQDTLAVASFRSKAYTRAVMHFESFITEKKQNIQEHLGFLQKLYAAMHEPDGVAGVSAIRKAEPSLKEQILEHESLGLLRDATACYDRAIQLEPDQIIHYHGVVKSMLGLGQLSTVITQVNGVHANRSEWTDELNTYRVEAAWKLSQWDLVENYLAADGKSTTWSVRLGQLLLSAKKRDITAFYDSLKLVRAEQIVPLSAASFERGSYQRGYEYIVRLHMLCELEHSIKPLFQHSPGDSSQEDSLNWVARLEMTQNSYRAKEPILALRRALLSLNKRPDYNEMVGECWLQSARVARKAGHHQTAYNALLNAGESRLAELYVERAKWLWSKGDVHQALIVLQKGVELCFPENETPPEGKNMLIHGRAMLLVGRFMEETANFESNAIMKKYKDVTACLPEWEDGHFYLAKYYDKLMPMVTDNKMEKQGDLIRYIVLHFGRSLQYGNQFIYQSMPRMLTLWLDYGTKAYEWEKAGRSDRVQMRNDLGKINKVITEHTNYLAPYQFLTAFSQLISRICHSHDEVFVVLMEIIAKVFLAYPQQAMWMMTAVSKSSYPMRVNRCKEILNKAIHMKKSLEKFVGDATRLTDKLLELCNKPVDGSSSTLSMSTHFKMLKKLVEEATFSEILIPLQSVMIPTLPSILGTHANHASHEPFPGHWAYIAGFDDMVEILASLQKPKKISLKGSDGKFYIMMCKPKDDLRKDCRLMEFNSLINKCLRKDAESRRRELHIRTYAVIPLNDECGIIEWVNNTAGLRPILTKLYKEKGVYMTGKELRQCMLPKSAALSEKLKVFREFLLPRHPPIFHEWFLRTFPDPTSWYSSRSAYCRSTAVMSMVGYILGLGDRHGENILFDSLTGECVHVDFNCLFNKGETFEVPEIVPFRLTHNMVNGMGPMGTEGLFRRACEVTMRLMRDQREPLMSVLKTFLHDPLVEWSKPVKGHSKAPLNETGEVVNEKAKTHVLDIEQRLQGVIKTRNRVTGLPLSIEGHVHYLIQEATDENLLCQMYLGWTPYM
full-length human ATR protein, sequence (Q8WXE1 other isoform, or with tags, fused parts or gaps partner): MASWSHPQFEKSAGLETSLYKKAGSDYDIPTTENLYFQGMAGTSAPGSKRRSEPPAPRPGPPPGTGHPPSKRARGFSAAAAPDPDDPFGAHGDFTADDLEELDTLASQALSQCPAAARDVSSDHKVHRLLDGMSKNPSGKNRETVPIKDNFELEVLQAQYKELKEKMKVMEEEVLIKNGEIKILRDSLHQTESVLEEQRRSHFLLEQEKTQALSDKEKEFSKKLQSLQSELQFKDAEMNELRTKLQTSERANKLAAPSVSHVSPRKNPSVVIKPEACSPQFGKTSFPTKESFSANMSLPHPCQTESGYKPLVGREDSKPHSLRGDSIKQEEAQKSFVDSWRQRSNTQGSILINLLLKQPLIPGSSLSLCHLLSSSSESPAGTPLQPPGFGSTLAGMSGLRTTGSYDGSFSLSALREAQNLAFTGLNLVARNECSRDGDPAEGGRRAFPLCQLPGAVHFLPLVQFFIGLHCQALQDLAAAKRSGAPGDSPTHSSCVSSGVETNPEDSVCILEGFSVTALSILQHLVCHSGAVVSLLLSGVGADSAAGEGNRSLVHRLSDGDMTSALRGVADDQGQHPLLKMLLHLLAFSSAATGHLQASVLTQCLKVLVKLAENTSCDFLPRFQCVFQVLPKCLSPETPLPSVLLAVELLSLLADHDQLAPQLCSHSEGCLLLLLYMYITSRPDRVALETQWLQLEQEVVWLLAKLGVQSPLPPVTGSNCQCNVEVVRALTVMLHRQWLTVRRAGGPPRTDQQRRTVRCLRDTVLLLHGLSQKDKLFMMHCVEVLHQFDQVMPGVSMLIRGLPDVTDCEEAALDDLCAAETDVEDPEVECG

`C[C@@H]1COCCN1c1cc(-c2cnn(C3CCC3)c2)c2ccnc(-c3ccn[nH]3)c2n1` [Example 253, 4-(1-cyclobutyl-1H-pyrazol-4-yl)-2-[(3R)-3-methylmorpholin-4-yl]-8-(1H-pyrazol-5-yl)-1,7-naphthyridine]: the IC50 under setting [1] turned out to be 33.7 nM. Same read-out and setting: the value for `CCn1nc(C(F)(F)F)cc1-c1cc(N2CCOC[C@H]2C)nc2c(-c3ccn[nH]3)nccc12` [Example 119, 4-[1-ethyl-3-(trifluoromethyl)-1H-pyrazol-5-yl]-2-[(3R)-3-methylmorpholin-4-yl]-8-(1H-pyrazol-5-yl)-1,7-naphthyridine] was 11.7 nM; that for `CNC(=O)c1cccc(-c2cc(N3CCOCC3)nc3c(-c4ccn[nH]4)nccc23)c1` [Example 297, N-methyl-3-[2-(morpholin-4-yl)-8-(1H-pyrazol-5-yl)-1,7-naphthyridin-4-yl]benzamide] was 119 nM.

As to `COC(=O)c1cc(-c2cc(N3CCOCC3)nc3c(-c4ccn[nH]4)nccc23)cs1` [Example 403, methyl 4-[2-(morpholin-4-yl)-8-(1H-pyrazol-5-yl)-1,7-naphthyridin-4-yl]thiophene-2-carboxylate], under setting [1], the concentration for half-maximal inhibition (IC50) came out at 194 nM. The same measure, in the same setting: the result for `C[C@@H]1COCCN1c1cc(-c2ccn(C)c2)c2ccnc(-c3ccn[nH]3)c2n1` [Example 262, 2-[(3R)-3-methylmorpholin-4-yl]-4-(1-methyl-1H-pyrrol-3-yl)-8-(1H-pyrazol-5-yl)-1,7-naphthyridine] reads 42.2 nM. Turning to `Cc1ncc(-c2cc(N3CCOC[C@H]3C)nc3c(-c4ccn[nH]4)nccc23)s1` [Example 78, 2-[(3R)-3-methylmorpholin-4-yl]-4-(2-methyl-1,3-thiazol-5-yl)-8-(1H-pyrazol-5-yl)-1,7-naphthyridine], the IC50 under setting [1] was 11 nM.

With `Cn1cccc1-c1cc(N2CCOCC2)nc2c(-c3ccn[nH]3)nccc12` [Example 389, 4-(1-methyl-1H-pyrrol-2-yl)-2-(morpholin-4-yl)-8-(1H-pyrazol-5-yl)-1,7-naphthyridine], the IC50 under setting [1] was 26.6 nM. Same read-out and setting: the value for `CC(C)(C)OC(=O)[C@@H]1CCCN1c1cc(N2CCOCC2)nc2c(-c3ccn[nH]3)nccc12` [Example 422, tert-butyl 1-[2-(morpholin-4-yl)-8-(1H-pyrazol-5-yl)-1,7-naphthyridin-4-yl]-prolinate] was 2240 nM; that for `CCOc1ncccc1-c1cc(N2CCOCC2)nc2c(-c3ccn[nH]3)nccc12` [Example 383, 4-(2-ethoxypyridin-3-yl)-2-(morpholin-4-yl)-8-(1H-pyrazol-5-yl)-1,7-naphthyridine] was 239 nM; that for `C[C@@H]1COCCN1c1cc(C(C)(C)O)c2ccnc(-c3ccn[nH]3)c2n1` [Example 128, 2-{2-[(3R)-3-methylmorpholin-4-yl]-8-(1H-pyrazol-5-yl)-1,7-naphthyridin-4-yl}propan-2-ol] was 32.6 nM. `CC(C)Cn1nccc1-c1cc(N2CCOC[C@H]2C)nc2c(-c3ccn[nH]3)nccc12` [Example 146, 4-(1-isobutyl-1H-pyrazol-5-yl)-2-[(3R)-3-methylmorpholin-4-yl]-8-(1H-pyrazol-5-yl)-1,7-naphthyridine]: the IC50 under setting [1] is 35.7 nM. On the same count and under the same terms, the value for `Fc1ncccc1-c1cc(N2CCOCC2)nc2c(-c3ccn[nH]3)nccc12` [Example 359, 4-(2-fluoropyridin-3-yl)-2-(morpholin-4-yl)-8-(1H-pyrazol-5-yl)-1,7-naphthyridine] was 85.5 nM; that for `C[C@@H]1COCCN1c1cc(-c2ccccc2N(C)C)c2ccnc(-c3ccn[nH]3)c2n1` [Example 122, N,N-dimethyl-2-{2-[(3R)-3-methylmorpholin-4-yl]-8-(1H-pyrazol-5-yl)-1,7-naphthyridin-4-yl}aniline] was 19.4 nM; that for `[O-][S+](c1ccccc1)c1cc(N2CCOCC2)nc2c(-c3ccn[nH]3)nccc12` (stereo not drawn) [Example 201, 2-(morpholin-4-yl)-4-(phenylsulfinyl)-8-(1H-pyrazol-5-yl)-1,7-naphthyridine] was 40 nM. As for `c1cnc2c(-c3cc(N4CCOCC4)nc4c(-c5ccn[nH]5)nccc34)cccc2c1` [Example 380, 2-(morpholin-4-yl)-8-(1H-pyrazol-5-yl)-4-(quinolin-8-yl)-1,7-naphthyridine], the IC50 under setting [1] worked out at 1460 nM. On the same count and under the same terms, the result for `CSc1ccc(-c2cc(N3CCOC[C@H]3C)nc3c(-c4ccn[nH]4)nccc23)c(C)n1` [Example 115, 4-[2-methyl-6-(methylsulfanyl)pyridin-3-yl]-2-[(3R)-3-methylmorpholin-4-yl]-8-(1H-pyrazol-5-yl)-1,7-naphthyridine] reads 7.44 nM; that for `CC1CCN(c2cc(N3CCOC[C@H]3C)nc3c(-c4ccn[nH]4)nccc23)CC1` [Example 109, 2-[(3R)-3-methylmorpholin-4-yl]-4-(4-methylpiperidin-1-yl)-8-(1H-pyrazol-5-yl)-1,7-naphthyridine], 9.14 nM. Still for that read-out and setting: the result for `Cc1cc(COc2cc(N3CCOCC3)nc3c(-c4ccn[nH]4)nccc23)no1` [Example 49, 4-[(5-methyl-1,2-oxazol-3-yl)methoxy]-2-(morpholin-4-yl)-8-(1H-pyrazol-5-yl)-1,7-naphthyridine] reads 200 nM; that for `Cc1ccc(-c2cc(N3CCOC[C@H]3C)nc3c(-c4ccn[nH]4)nccc23)cn1` [Example 88, 2-[(3R)-3-methylmorpholin-4-yl]-4-(6-methylpyridin-3-yl)-8-(1H-pyrazol-5-yl)-1,7-naphthyridine], 15.3 nM. Consider `COc1cncc(-c2cc(N3CCOCC3)nc3c(-c4ccn[nH]4)nccc23)c1` [Example 353, 4-(5-methoxypyridin-3-yl)-2-(morpholin-4-yl)-8-(1H-pyrazol-5-yl)-1,7-naphthyridine], for which the IC50 under setting [1] turned out to be 242 nM. Take `Fc1ccc(-c2cc(N3CCOCC3)nc3c(-c4ccn[nH]4)nccc23)c(F)c1` [Example 340, 4-(2,4-difluorophenyl)-2-(morpholin-4-yl)-8-(1H-pyrazol-5-yl)-1,7-naphthyridine]: the half-inhibitory concentration (IC50) under setting [1] was 33.5 nM. For `C[C@@H]1COCCN1c1cc(-c2cccc(S(C)(=O)=O)c2F)c2ccnc(-c3ccn[nH]3)c2n1` [Example 132, 4-[2-fluoro-3-(methylsulfonyl)phenyl]-2-[(3R)-3-methylmorpholin-4-yl]-8-(1H-pyrazol-5-yl)-1,7-naphthyridine], the IC50 under setting [1] stood at 23.7 nM. Turning to `Cc1cc(S(C)(=O)=O)ncc1-c1cc(N2CCOCC2)nc2c(-c3ccn[nH]3)nccc12` [Example 6, 4-[4-methyl-6-(methylsulfonyl)pyridin-3-yl]-2-(morpholin-4-yl)-8-(1H-pyrazol-5-yl)-1,7-naphthyridine], the IC50 under setting [1] worked out at 68.6 nM. On to `CS(=O)(=O)C1(c2cc(N3CCOCC3)nc3c(-c4ccn[nH]4)nccc23)CC1` [Example 39, 4-(1-methanesulphonylcyclopropyl)-2-(morpholin-4-yl)-8-(2H-pyrazol-3-yl)-[1,7]naphthyridine], for which the IC50 runs as follows: under setting [1], 60.1 nM; (tracer B, read-out: ATR binding (tracer B) IC50) 35.3 nM. For the molecule `COc1nccc(-c2cc(N3CCOC[C@H]3C)nc3c(-c4ccn[nH]4)nccc23)c1Cl` [Example 106, 4-(3-chloro-2-methoxypyridin-4-yl)-2-[(3R)-3-methylmorpholin-4-yl]-8-(1H-pyrazol-5-yl)-1,7-napthyridine], the IC50 under setting [1] was 13.1 nM. The same measure, in the same setting: the value for `CC(C)S(=O)(=O)c1cc(N2CCOCC2)nc2c(-c3ccn[nH]3)nccc12` [Example 199, 2-(morpholin-4-yl)-4-(propan-2-ylsulfonyl)-8-(1H-pyrazol-5-yl)-1,7-naphthyridine] was 138 nM; that for `C[C@@H]1COCCN1c1cc(-c2ccsc2Cl)c2ccnc(-c3ccn[nH]3)c2n1` [Example 236, 4-(2-chlorothiophen-3-yl)-2-[(3R)-3-methylmorpholin-4-yl]-8-(1H-pyrazol-5-yl)-1,7-naphthyridine] was 28.2 nM. For the molecule `Cc1cc(-c2cc(N3CCOCC3)nc3c(-c4ccn[nH]4)nccc23)cnc1S(C)(=O)=O` [Example 16, 4-[5-methyl-6-(methylsulfonyl)pyridin-3-yl]-2-(morpholin-4-yl)-8-(1H-pyrazol-5-yl)-1,7-naphthyridine], under setting [1], the IC50 was 173 nM. For `O=C(NC1CC1)c1cccc(-c2cc(N3CCOCC3)nc3c(-c4ccn[nH]4)nccc23)c1` [Example 330, N-cyclopropyl-3-[2-(morpholin-4-yl)-8-(1H-pyrazol-5-yl)-1,7-naphthyridin-4-yl]benzamide], the IC50 under setting [1] amounted to 91.3 nM. Regarding `COc1ccc(-c2cc(N3CCOCC3)nc3c(-c4ccn[nH]4)nccc23)c(OC)c1` [Example 332, 4-(2,4-dimethoxyphenyl)-2-(morpholin-4-yl)-8-(1H-pyrazol-5-yl)-1,7-naphthyridine], under setting [1], the IC50 turned out to be 68.1 nM. Still for that read-out and setting: the result for `C[C@@H]1COCCN1c1cc(N=S(C)(=O)c2ccccc2O)c2ccnc(-c3ccn[nH]3)c2n1` (stereo partly drawn) [Example 276, 2-(methyl-N-{2-[(3R)-3-methylmorpholin-4-yl]-8-(1H-pyrazol-5-yl)-1,7-naphthyridin-4-yl}sulfonimidoyl)phenol] reads 237 nM. Regarding `CCn1nccc1-c1cc(N2CCOC[C@H]2C)nc2c(-c3ccn[nH]3)nccc12` [Example 69, 4-(1-ethyl-1H-pyrazol-5-yl)-2-[(3R)-3-methylmorpholin-4-yl]-8-(1H-pyrazol-5-yl)-1,7-naphthyridine], the IC50 under setting [1] was determined as 5.34 nM.

For the molecule `c1cncc(-c2cc(N3CCOCC3)nc3c(-c4ccn[nH]4)nccc23)c1` [Example 350, 2-(morpholin-4-yl)-8-(1H-pyrazol-5-yl)-4-(pyridin-3-yl)-1,7-naphthyridine], under setting [1], the IC50 came to 162 nM. On the same count and under the same terms, the value for `C[C@@H]1COCCN1c1cc(C2=CCSCC2)c2ccnc(-c3ccn[nH]3)c2n1` [Example 108, 4-(3,6-dihydro-2H-thiopyran-4-yl)-2-[(3R)-3-methylmorpholin-4-yl]-8-(1H-pyrazol-5-yl)-1,7-naphthyridine] was 11.5 nM; that for `CN(C)C(=O)c1ccc(-c2cc(N3CCOCC3)nc3c(-c4ccn[nH]4)nccc23)cc1` [Example 324, N,N-dimethyl-4-[2-(morpholin-4-yl)-8-(1H-pyrazol-5-yl)-1,7-naphthyridin-4-yl]benzamide] was 77.7 nM.
